The values below come from US20260022246A1, “COLORING AGENT COMPOSITION, FILM, OPTICAL FILTER, AND NEAR INFRARED ABSORBING COMPOUND” (FUJIFILM Corporation, priority 2023, published 2026).

Holding throughout (format): physicochemical
Data set [1] can be described thus: Evaluation of absorption spectrum (maximal absorption wavelength in chloroform solution). The following applies: for λmax (maximal absorption wavelength): chloroform solution, 3.0×10^−5 mol/L, 1 mm quartz cell; for Near infrared absorbing property: grade of λmax in chloroform solution. The protocol:
The specific compound is diluted with chloroform to a concentration of […], and an absorbance of the obtained sample solution is measured with a spectrophotometer (UV-3600 Plus, manufactured by Shimadzu Corporation) using a 1 mm quartz cell. A maximal absorption wavelength (Amax) is measured from an absorption spectrum of the sample solution.
For each of Exemplary Compounds shown in Tables 1 and 2, a sample solution was prepared by diluting the compound with chloroform to a concentration of 3.0×10^−5 mol/L, and near infrared absorbability was evaluated.
For each sample solution, an absorbance was measured in a 1 mm quartz cell using a spectrophotometer (UV-3600 Plus, manufactured by Shimadzu Corporation).
A maximal absorption wavelength (Amax) was measured from the absorption spectrum of each sample solution. The results are shown in Tables 1 and 2, and the wavelength of Amax was evaluated according to the following standard.
• A: Amax was 1,150 nm or more. • B: Amax was less than 1,150 nm.

Data set [2] is described as follows: Evaluation of solubility in methyl ethyl ketone (MEK). More on the design: key to Solubility in solvent: A: 1 g or more of the compound was stably dissolved in 300 g of MEK; B: 1 g was not dissolved in 300 g of MEK; X: decomposition was observed by measuring the absorption spectrum after the dissolution. The conditions noted are these: for Solubility in solvent: stirred at room temperature for 30 minutes. The method, then:
For each of Exemplary Compounds shown in Tables 1 and 2, a predetermined amount of the compound was added to a solvent of methyl ethyl ketone (MEK), and solubility was evaluated according to the following standard by stirring the mixture at room temperature for 30 minutes.
• A: 1 g or more of the compound was stably dissolved in 300 g of MEK. • B: 1 g was not dissolved in 300 g of MEK. • X: decomposition was observed by measuring the absorption spectrum after the dissolution.

Data set [3] in a line: Evaluation of heat stability of polystyrene resin film (hot plate 180° C., 5 minutes). Further details: key to Heat stability of resin composition: absorbance reduction rate of Amax was less than 5%; B: absorbance reduction rate of Amax was 5% or more and less than 10%; C: absorbance reduction rate of Amax was 10% or more and less than 50%; D: absorbance reduction rate of Amax was 50% or more; X: solubility was insufficient, so that the film cannot be produced, which was not evaluable. The conditions noted are these: for Heat stability of resin composition: polystyrene resin film on glass, hot plate 180° C. for 5 minutes, absorbance reduction rate at λmax. The method, then:
30 mg of each of Exemplary Compounds and the comparative compounds described in the tables was dissolved in 8.9 g of methyl ethyl ketone and 1.1 g of a polystyrene resin (manufactured by Sigma-Aldrich Co. LLC) to prepare a resin composition.
The obtained resin composition was spin-coated on a glass substrate to form a coating film, and the obtained coating film was dried at 60° C. for 2 minutes to produce a resin film. […]
• A: absorbance reduction rate of Amax was less than 5%. • B: absorbance reduction rate of Amax was 5% or more and less than 10%. • C: absorbance reduction rate of Amax was 10% or more and less than 50%. • D: absorbance reduction rate of Amax was 50% or more. • X: solubility was insufficient, so that the film cannot be produced, which was not evaluable.

Data set [4] is described as follows: Evaluation of kneading: transmittance at 1,150 nm of melt-kneaded resin film. The following applies: kneaded with resin under the thermal conditions. The method, then: A resin composition, which was a kneaded material of the specific compound or the comparative compound and a resin, was prepared, and the following kneading evaluation was performed.
The specific compounds and comparative compounds shown in Table 3 below were weighed in the contents shown in Table 3, and a sample obtained by shaking and mixing 12.0 g of the resin shown in Table 3 was prepared. A polycarbonate resin (indicated as Polycarbonate in Table 3), a polystyrene resin, and an acrylic resin were used as the resin. In Table 3, the polycarbonate resin is indicated as Polycarbonate, the polystyrene resin is indicated as Polystyrene, and the acrylic resin is indicated as Acrylic.
The obtained sample was put into a supply port of a biaxial kneader (Labo Plastomill, manufactured by Toyo Seiki Seisaku-sho, Ltd.) and subjected to melt-kneading to obtain a resin composition as a kneaded material. The obtained resin composition was pressed using a heat press machine to obtain a resin film having a thickness of 0.15 mm.
In a case where a polycarbonate resin (SD PORYCA (registered trademark) 301-10, manufactured by Sumika Polycarbonate Co., Ltd.) was used as the resin, the melt-kneading temperature was set to 260° C. and the hot press temperature was set to 230° C.
In a case where a polystyrene resin (manufactured by Sigma-Aldrich Co. LLC) was used as the resin, the melt-kneading temperature was set to 200° C. and the hot press temperature was set to 180° C.
In a case where an acrylic resin (G1000, manufactured by Kuraray Co., Ltd.) was used as the resin, the melt-kneading temperature was set to 180° C. and the hot press temperature was set to 160° C.
A transmittance of the obtained resin film at a wavelength of 1,150 nm was measured with a spectrophotometer, and the measured value was evaluated according to the following standard. In Table 3, it is described in “Evaluation of transmittance at wavelength of 1150 nm”. As the transmittance is lower, the near infrared blocking property is better. […]

For the molecule `Cc1ccc(N(c2ccc(C)cc2)c2ccc([N+](=C3C=CC(=[N+](c4ccc(N(c5ccc(C)cc5)c5ccc(C)cc5)cc4)c4ccc(N(c5ccc(C)cc5)c5ccc(C)cc5)cc4)C=C3)c3ccc(N(c4ccc(C)cc4)c4ccc(C)cc4)cc3)cc2)cc1.O=S(=O)([C-](S(=O)(=O)C(F)(F)F)S(=O)(=O)C(F)(F)F)C(F)(F)F.O=S(=O)([C-](S(=O)(=O)C(F)(F)F)S(=O)(=O)C(F)(F)F)C(F)(F)F` [A-34], in data set [1], the “λmax (maximal absorption wavelength)” value came out at 1211 nm and the “Near infrared absorbing property” value is on record as “A (Amax was 1,150 nm or more)”. Further, the Solubility in solvent entry in data set [2] is “A (1 g or more of the compound was stably dissolved in 300 g of MEK)”. Moreover, in data set [3], the “Heat stability of resin composition” value is on record as “A (absorbance reduction rate of Amax was less than 5%)”.

Consider `Cc1ccc(N(c2ccc(C)cc2)c2ccc([N+](=C3C=CC(=[N+](c4ccc(N(c5ccc(C)cc5)c5ccc(C)cc5)cc4)c4ccc(N(c5ccc(C)cc5)c5ccc(C)cc5)cc4)C=C3)c3ccc(N(c4ccc(C)cc4)c4ccc(C)cc4)cc3)cc2)cc1` [A-35], for which, in data set [1], the “Near infrared absorbing property” value was “A (Amax was 1,150 nm or more)”. Also, in data set [2], the Solubility in solvent entry was “A (1 g or more of the compound was stably dissolved in 300 g of MEK)”. Further, the “Heat stability of resin composition” value in data set [3] was “A (absorbance reduction rate of Amax was less than 5%)”.

On to `Cc1ccc(N(c2ccc(C)cc2)c2ccc([N+](=C3C=CC(=[N+](c4ccc(N(c5ccc(C)cc5)c5ccc(C)cc5)cc4)c4ccc(N(c5ccc(C)cc5)c5ccc(C)cc5)cc4)C=C3)c3ccc(N(c4ccc(C)cc4)c4ccc(C)cc4)cc3)cc2)cc1.c1ccc([B-](c2ccccc2)(c2ccccc2)c2ccccc2)cc1.c1ccc([B-](c2ccccc2)(c2ccccc2)c2ccccc2)cc1` [A-36], for which, in data set [1], the “λmax (maximal absorption wavelength)” value is listed as 1215 nm and the “Near infrared absorbing property” value is “A (Amax was 1,150 nm or more)”. The Solubility in solvent result in data set [2] was “A (1 g or more of the compound was stably dissolved in 300 g of MEK)”. Moreover, the “Heat stability of resin composition” value in data set [3] is “A (absorbance reduction rate of Amax was less than 5%)”.

As for `C1=CC(=[N+](c2ccc(N(c3ccccc3)c3ccccc3)cc2)c2ccc(N(c3ccccc3)c3ccccc3)cc2)C=CC1=[N+](c1ccc(N(c2ccccc2)c2ccccc2)cc1)c1ccc(N(c2ccccc2)c2ccccc2)cc1` [Comparative compound 1, reference compound], in data set [1], the “λmax (maximal absorption wavelength)” value was 1230 nm and the “Near infrared absorbing property” value is reported as “A (Amax was 1,150 nm or more)”. In data set [2], the “solubility in a solvent (in words)” value was “inferior” and the Solubility in solvent result was “B (1 g was not dissolved in 300 g of MEK)”. The “Heat stability of resin composition” value in data set [3] is recorded as “X”.

Consider `Cc1ccc(N(c2ccc(C)cc2)c2ccc([N+](=C3C=CC(=[N+](c4ccc(N(c5ccc(C)cc5)c5ccc(C)cc5)cc4)c4ccc(N(c5ccc(C)cc5)c5ccc(C)cc5)cc4)C=C3)c3ccc(N(c4ccc(C)cc4)c4ccc(C)cc4)cc3)cc2)cc1` [Comparative compound 2, reference compound], for which, in data set [1], the “λmax (maximal absorption wavelength)” value is 1250 nm and the “Near infrared absorbing property” value is “A (Amax was 1,150 nm or more)”. For the same molecule, in data set [2], the “stability after dissolving in a solvent (measurement of the absorption spectrum)” value was “decomposed” and the Solubility in solvent entry is recorded as “X”. The “Heat stability of resin composition” value in data set [3] is “D (absorbance reduction rate of Amax was 50% or more)”. Besides, the “heat stability (in words, kneading evaluation)” value in data set [4] is “low”.

For `CCCCN(CCCC)c1ccc(N(c2ccc(N(CCCC)CCCC)cc2)c2ccc([N+](=C3C=CC(=[N+](c4ccc(N(c5ccc(N(CCCC)CCCC)cc5)c5ccc(N(CCCC)CCCC)cc5)cc4)c4ccc(N(c5ccc(N(CCCC)CCCC)cc5)c5ccc(N(CCCC)CCCC)cc5)cc4)C=C3)c3ccc(N(c4ccc(N(CCCC)CCCC)cc4)c4ccc(N(CCCC)CCCC)cc4)cc3)cc2)cc1.[F][Sb-]([F])([F])([F])([F])[F].[F][Sb-]([F])([F])([F])([F])[F]` [Comparative compound 3, reference compound], in data set [1], the “λmax (maximal absorption wavelength)” value stood at 1051 nm and the “Near infrared absorbing property” value is given as “B (Amax was less than 1,150 nm)”. In data set [2], the “stability after dissolving in a solvent (measurement of the absorption spectrum)” value was “decomposed” and the Solubility in solvent entry is on record as “X”. Also, in data set [3], the “Heat stability of resin composition” value is on record as “D (absorbance reduction rate of Amax was 50% or more)”. Besides, the “heat stability (in words, kneading evaluation)” value in data set [4] is listed as “low”.

Turning to `CCCCN(CCCC)c1ccc([N+](=C2C=CC(=[N+](c3ccc(N(CCCC)CCCC)cc3)c3ccc(N(CCCC)CCCC)cc3)C=C2)c2ccc(N(CCCC)CCCC)cc2)cc1.[F][Sb-]([F])([F])([F])([F])[F].[F][Sb-]([F])([F])([F])([F])[F]` [Comparative compound 4, reference compound], in data set [1], the “λmax (maximal absorption wavelength)” value was 1100 nm and the “Near infrared absorbing property” value is reported as “B (Amax was less than 1,150 nm)”. Moreover, in data set [2], the “solubility in a solvent (in words)” value is given as “favorable” and the Solubility in solvent result was “A (1 g or more of the compound was stably dissolved in 300 g of MEK)”. Moreover, the “heat stability of the resin composition (in words)” value in data set [3] (polystyrene resin film) is on record as “low”. For the same molecule, the “Heat stability of resin composition” value in data set [3] is on record as “D (absorbance reduction rate of Amax was 50% or more)”. Besides, the “absorbance at the maximal absorption wavelength on heating” value in data set [3] (resin film, heating at 130° C. as printed) is “significantly reduced”. In addition, the “heat stability (in words, kneading evaluation)” value in data set [4] is given as “low”.
